Laboratory results: patent publication US20050142068A1, “Retinal toxicity screening methods” (Pfizer Inc, priority 2003, published 2005)

Tests used:
retina = conditions: literature reports; cited from earlier work
RPE-J cells = assay: Assay to identify retinal toxic agents: integrin marker fluorescence in RPE-J cells, confocal microscopy; format: cell-based, rat; conditions: 50 nM integrin marker, one hour
From the text: For each figure, the photomicrograph on the left is made using two excitation wavelengths—488 nm (argon laser) for the integrin marker peptide and 633 nm (HeNe laser) for TOTO®-3 iodide. The integrin peptide marker fluoresces at 520 nm and TOTO®-3 iodide fluoresces at 660 nm. The photomicrograph on the right is of the identical cells as those in the left micrograph, but under 488 nm excitation alone.
RPE-J cells were plate cultured in high glucose DMEM medium (cat. no. 10313021, Invitrogen, Carlsbad, Calif.) containing 4% fetal calf serum (cat. no. 12319018, Invitrogen) at 33° C. under 5-10% CO2 atmosphere. When confluence of about 80% was reached (after about seven days), the medium was removed from the culture dish and the cells on the bottoms were washed with 0.25% trypsin-EDTA (cat. no. 25200056, Invitrogen) for three and one-half to five minutes. Following trypsinization the cells were centrifuged at 500-600 RPM for five minutes and resuspended in high glucose DMEM medium containing 4% fetal calf serum. The cells were plated in a four-chamber slide (1.7 cm^2 per chamber) at 50,000 cells per chamber. When confluence of about 80% was reached, the cells were gently wash the cells in warm phosphate buffered saline. […] Fluorescence was detected at 520 nm for the integrin marker peptide and at 660 nm for TOTO®-3 iodide.

In the case of `CN(C)CCCN1c2ccccc2Sc2ccc(Cl)cc21` [chlorpromazine], the “damage to the retina reported as a result of exposure” value (retina) is given as “retinopathy”.

In the case of `CCN(CC)CCCC(C)Nc1ccnc2cc(Cl)ccc12` (stereo not shown) [cloroquine], the “damage to the retina reported as a result of exposure” value (retina) is listed as “retinopathy”.

In the case of `CC/C(=C(\c1ccccc1)c1ccc(OCCN(C)C)cc1)c1ccccc1` [tamoxifen], the “visibility of integrin peptide marker fluorescence” value (RPE-J cells; 1 μM tamoxifen, 488 nm excitation (FIG. 3)) is reported as “clearly visible” and the “visibility of integrin peptide marker fluorescence” value (RPE-J cells; 25 μM tamoxifen, 488 nm excitation (FIG. 4)) is reported as “highly visible”.
